{"source": "patent US6524630B2", "about": "“Use of cocoa procyanidins combined with acelylsalicyclic acid as an anti-platelet therapy” (Mars, Incorporated, priority 2000, dated 2003)", "type_in_all_cases": "in vivo, human", "key": {"P-selectin (CD62P)": {"test_system": "P-selectin (CD62P)", "experiment": "Ex vivo flow cytometry of platelet surface expression of P-selectin after treatment", "method": "The subjects used in the previous study also participated in the surface protein expression study. The methodology with respect to treatment regimes and collection of blood was identical to that which was outlined in the previous example. Within 10 minutes of draw, whole blood was incubated in polystyrene tubes for 5 minutes at room temperature with 10 μm HEPES buffer (pH 7.4, unstimulated control), 20 or 100 μm ADP or 20 μtm epinephrine (BioData, Horsham, Pa.) in the presence or absence of the peptide […] (Sigma, St. Louis, Mo.). After 5 minutes, samples were suspended in 1 ml HEPES buffer and 100 μm of sample were transferred to tubes containing saturating concentrations (20 μm ) each of the following fluorescent-labeled monoclonal antibodies: PAC1-fluorescein isothiocyanate (FITC), anti-CD62P-phycoerythrin (PE) and anti-CD42a-PerCP. PAC1 recognizes the activated conformation of the fibrinogen-binding receptor GPIIb-IIIa and anti-CD62P recognizes P-selectin, present on the surface of activated platelets. Anti-CD42a recognizes GP1b-1X, which is on the surface of both activated and resting platelets. Mouse IgG, FITC and mouse IgG, PE were used as isotype controls. The […]-peptide was used to block binding of the PAC1 antibody to platelets and thus set the negative control marker on the flow cytometer. Antibodies and isotype controls were purchased from Becton Dickinson Immunocytometry Systems, Inc., San Jose, Calif. Whole blood samples in the presence and absence of the agonists ADP and epinephrine were incubated with monoclonal antibodies or isotype control for 20 minutes in the dark at room temperature. Samples were then fixed in filtered 1% paraformaldehyde (pH 7.2) and stored in the dark at 2-8° C. All samples were analyzed within 48 hours on a FACScan flow cytometer using […] software. The flow cytometer performance was verified using 1, 2 and 10 μm calibration beads (Becton Dickinson Immunocytometry Systems, Inc., San Jose, Calif. and Flow Cytometry Systems, Research Triangle Park, N.C.). Twenty thousand events were collected in list mode with all light-scatter and fluorescence parameters in logarithmic code. Platelets were gated on the basis of […] CD42a expression. Activated platelets were defined as the percentage of CD42a positive events coexpressing the activated conformation of GPIIb-IIa or P-selectin. Platelet microparticles were defined as the percentage of CD42a positive events less than 2 μm in size. To perform the statistical analysis of the results, Friedman's repeated measures ANOVA on ranks (RM ANOVA on ranks) was used to compare the baseline, 2 and 6 hour results in each treatment group. Tukey's all pairwise comparison was used for post hoc multiple comparisons. […] The platelet-dependent hemostasis data were also analyzed for statistical differences among treatment groups for each time point, baseline, 2 and 6 hour."}, "[1]": {"test_system": "leukotrienes C4, D4 and E4", "experiment": "Immunoassay of leukotrienes in blood after treatment", "method": "Blood was drawn from the subjects prior to consumption of any food. After the initial blood was drawn, the subjects were divided into four groups. One group consumed 81 mg of aspirin (acetylsalicylic acid) (Bayer pediatric aspirin). A second group consumed a high cocoa polyphenol beverage consisting of 18.75 g of procyanidin enriched cocoa powder derived from Sulawesi beans (containing 51.1 mg/g of total procyanidins, 11.2% fat, 0.092% caffeine, 1.618% theobromine) and 12.5 g of sucrose mixed with 300 ml of distilled water. A third group consumed the high cocoa procyanidin beverage and 81 mg of baby aspirin. The final group consumed 81 mg of baby aspirin and a procyanidin deficient cocoa beverage consisting of 18.75 g of cocoa powder (containing 0.45 mg/g total procyanidins, 9.87% fat, 2.063% theobromine, 0.234% caffeine) and 12.5 g of sucrose mixed with 300 ml of distilled water. During the test period the subjects were permitted to consume water, caffeine-free diet soda, bagels, low fat cream cheese, and bananas. Blood was drawn from each of the subjects two hours and six hours post consumption of the treatment. Venous blood was aspirated into evacuated tubes containing 0.5 ml of 3.2% buffered sodium citrate solution. The blood samples were also analyzed for changes in leukotriene, prostacyclin and thromboxane levels resulting from the four treatment regimes. Immunoassay procedures were conducted as described by Westcott et al, “Analysis Of 6-Keto PGF1 Alpha, 5-HETE, And LTC4 In Rat Lung: Comparison Of GM/MS, RIA and EIA”, Prostaglandins 32:857-873, 1986; Yakota et al, “Enzyme Immunoassay Of Prostanoids In Blood And Urine”, Adv. Prostgl.Thrombox. Leukot. Res. 15:33-34, 1985; and Schramm et al, “Differential Effects of Small and Large Molecular Weight Phytochemicals on Endothelial Cell Eicosanoid Secretion” J Agric Food Chem 46:1900-1905, 1998. The prostacyclin (PGI2) metabolite 6-keto prostaglandin F1-alpha was measured with Cayman enzyme immunoassay #515211, the thromboxane (TXA2) metabolite TXB2 was measured with Cayman enzyme immunoassay 519031, and leukotrienes C4, D4 and E4 were quantified using the immunoassay EA-39 from Oxford Biomedical Research. P values were calculated using the paired sample T-test. Values of p<0.05 were considered to be statistically significant."}, "[2]": {"test_system": "activated conformation of the GPIIb/IIIa platelet receptor", "experiment": "Ex vivo flow cytometry (PAC1) of activated GPIIb/IIIa on platelets after treatment", "conditions": "at 6 hours compared to baseline", "method": "The subjects used in the previous study also participated in the surface protein expression study. The methodology with respect to treatment regimes and collection of blood was identical to that which was outlined in the previous example. Within 10 minutes of draw, whole blood was incubated in polystyrene tubes for 5 minutes at room temperature with 10 μm HEPES buffer (pH 7.4, unstimulated control), 20 or 100 μm ADP or 20 μtm epinephrine (BioData, Horsham, Pa.) in the presence or absence of the peptide […] (Sigma, St. Louis, Mo.). After 5 minutes, samples were suspended in 1 ml HEPES buffer and 100 μm of sample were transferred to tubes containing saturating concentrations (20 μm ) each of the following fluorescent-labeled monoclonal antibodies: PAC1-fluorescein isothiocyanate (FITC), anti-CD62P-phycoerythrin (PE) and anti-CD42a-PerCP. PAC1 recognizes the activated conformation of the fibrinogen-binding receptor GPIIb-IIIa and anti-CD62P recognizes P-selectin, present on the surface of activated platelets. […] All samples were analyzed within 48 hours on a FACScan flow cytometer using […] software. […] Twenty thousand events were collected in list mode with all light-scatter and fluorescence parameters in logarithmic code. […] The platelet-dependent hemostasis data were also analyzed for statistical differences among treatment groups for each time point, baseline, 2 and 6 hour."}, "[3]": {"test_system": "thromboxane (TXA2) metabolite TXB2", "experiment": "Enzyme immunoassay of thromboxane metabolite in blood after treatment", "method": "Blood was drawn from the subjects prior to consumption of any food. After the initial blood was drawn, the subjects were divided into four groups. One group consumed 81 mg of aspirin (acetylsalicylic acid) (Bayer pediatric aspirin). A second group consumed a high cocoa polyphenol beverage consisting of 18.75 g of procyanidin enriched cocoa powder derived from Sulawesi beans (containing 51.1 mg/g of total procyanidins, 11.2% fat, 0.092% caffeine, 1.618% theobromine) and 12.5 g of sucrose mixed with 300 ml of distilled water. A third group consumed the high cocoa procyanidin beverage and 81 mg of baby aspirin. The final group consumed 81 mg of baby aspirin and a procyanidin deficient cocoa beverage consisting of 18.75 g of cocoa powder (containing 0.45 mg/g total procyanidins, 9.87% fat, 2.063% theobromine, 0.234% caffeine) and 12.5 g of sucrose mixed with 300 ml of distilled water. During the test period the subjects were permitted to consume water, caffeine-free diet soda, bagels, low fat cream cheese, and bananas. Blood was drawn from each of the subjects two hours and six hours post consumption of the treatment. Venous blood was aspirated into evacuated tubes containing 0.5 ml of 3.2% buffered sodium citrate solution.\nThe blood samples were also analyzed for changes in leukotriene, prostacyclin and thromboxane levels resulting from the four treatment regimes. Immunoassay procedures were conducted as described by Westcott et al, “Analysis Of 6-Keto PGF1 Alpha, 5-HETE, And LTC4 In Rat Lung: Comparison Of GM/MS, RIA and EIA”, Prostaglandins 32:857-873, 1986; Yakota et al, “Enzyme Immunoassay Of Prostanoids In Blood And Urine”, Adv. Prostgl.Thrombox. Leukot. Res. 15:33-34, 1985; and Schramm et al, “Differential Effects of Small and Large Molecular Weight Phytochemicals on Endothelial Cell Eicosanoid Secretion” J Agric Food Chem 46:1900-1905, 1998. The prostacyclin (PGI2) metabolite 6-keto prostaglandin F1-alpha was measured with Cayman enzyme immunoassay #515211, the thromboxane (TXA2) metabolite TXB2 was measured with Cayman enzyme immunoassay 519031, and leukotrienes C4, D4 and E4 were quantified using the immunoassay EA-39 from Oxford Biomedical Research. P values were calculated using the paired sample T-test. Values of p<0.05 were considered to be statistically significant."}, "[4]": {"test_system": "prostacyclin (PGI2) metabolite 6-keto prostaglandin F1-alpha", "experiment": "Enzyme immunoassay of prostacyclin metabolite in blood after treatment", "method": "Blood was drawn from the subjects prior to consumption of any food. After the initial blood was drawn, the subjects were divided into four groups. One group consumed 81 mg of aspirin (acetylsalicylic acid) (Bayer pediatric aspirin). A second group consumed a high cocoa polyphenol beverage consisting of 18.75 g of procyanidin enriched cocoa powder derived from Sulawesi beans (containing 51.1 mg/g of total procyanidins, 11.2% fat, 0.092% caffeine, 1.618% theobromine) and 12.5 g of sucrose mixed with 300 ml of distilled water. A third group consumed the high cocoa procyanidin beverage and 81 mg of baby aspirin. […] The blood samples were also analyzed for changes in leukotriene, prostacyclin and thromboxane levels resulting from the four treatment regimes. […] The prostacyclin (PGI2) metabolite 6-keto prostaglandin F1-alpha was measured with Cayman enzyme immunoassay #515211, the thromboxane (TXA2) metabolite TXB2 was measured with Cayman enzyme immunoassay 519031, and leukotrienes C4, D4 and E4 were quantified using the immunoassay EA-39 from Oxford Biomedical Research. P values were calculated using the paired sample T-test. […]"}}, "note": "Marks after values point to notes of the source that are not given here."}
{"compound": "CC(=O)Oc1ccccc1C(=O)O", "note": "[Aspirin, acetylsalicylic acid]", "values": [{"measurement": "% CD62 + Platelets, Median", "setting": "P-selectin (CD62P); 20 μM ADP, 0 Hour (before consumption)", "value": 64.5, "unit": "%"}, {"measurement": "% CD62 + Platelets, Median", "setting": "P-selectin (CD62P); 20 μM ADP, 2 Hour", "value": 60.3, "unit": "%"}, {"measurement": "% CD62 + Platelets, Median", "setting": "P-selectin (CD62P); 20 μM ADP, 6 Hour", "value": 60.8, "unit": "%"}, {"measurement": "% CD62 + Platelets, Median", "setting": "P-selectin (CD62P); 20 μM Epinephrine, 0 Hour (before consumption)", "value": 7.9, "unit": "%"}, {"measurement": "% CD62 + Platelets, Median", "setting": "P-selectin (CD62P); 20 μM Epinephrine, 2 Hour", "value": 6.2, "unit": "%"}, {"measurement": "% CD62 + Platelets, Median", "setting": "P-selectin (CD62P); 20 μM Epinephrine, 6 Hour", "value": "4.7* %"}, {"measurement": "% CD62 + Platelets, Median", "setting": "P-selectin (CD62P); Unstimulated, 0 Hour (before consumption)", "value": 1.4, "unit": "%"}, {"measurement": "% CD62 + Platelets, Median", "setting": "P-selectin (CD62P); Unstimulated, 2 Hour", "value": 1.5, "unit": "%"}, {"measurement": "% CD62 + Platelets, Median", "setting": "P-selectin (CD62P); Unstimulated, 6 Hour", "value": 1.3, "unit": "%"}, {"measurement": "epinephrine-induced P-selectin expression", "setting": "P-selectin (CD62P); at 6 hours compared to baseline, in words", "value": "suppressed"}, {"measurement": "LT/PG12 ratio", "setting": "[1]; 2 hrs post consumption", "value": 99}, {"measurement": "Leukotrienes", "setting": "[1]; 2 hrs post consumption", "value": 101}, {"measurement": "LT/PG12 ratio", "setting": "[1]; 6 hrs post consumption", "value": 100}, {"measurement": "Leukotrienes", "setting": "[1]; 6 hrs post consumption", "value": 100}, {"measurement": "epinephrine-induced GPIIb/IIIa expression", "setting": "[2]", "value": "suppressed"}, {"measurement": "TXB2/PG12 ratio", "setting": "[3]; 2 hrs post consumption", "value": 89}, {"measurement": "Thromboxane", "setting": "[3]; 2 hrs post consumption", "value": 91}, {"measurement": "TXB2/PG12 ratio", "setting": "[3]; 6 hrs post consumption", "value": 86}, {"measurement": "Thromboxane", "setting": "[3]; 6 hrs post consumption", "value": 89}, {"measurement": "Prostacyclin", "setting": "[4]; 2 hrs post consumption", "value": 103}, {"measurement": "Prostacyclin", "setting": "[4]; 6 hrs post consumption", "value": 104}]}
